Columns and labels:
[1] = system: capillary endothelial cells; conditions: in vitro, capillary endothelial cells plated on fibronectin-coated dishes; cited from earlier work
[2] = system: PERK; test: Unfolded protein response, western blot of PERK; assay type: cell-based, bovine; conditions: FIG. 5
Description: (§1) The capillary endothelial cells were from the laboratory stock of a non-transformed endothelial cell line from bovine adrenal medulla and maintained as previously described. Synchronized cultures (33) were treated with Tunicamycin nanoparticles (1 μg/ml) for 1 h in EMEM containing 2% fetal bovine serum (heat inactivated).
(§2) Performed as before with 7.5% gel concentration.
(§3) It has been observed recently that Tunicamycin inhibits angiogenesis in vitro and in vivo as well as during the breast tumor progression by ER stress-mediated induction of unfolded protein response. In addition, it has also been shown that Tunicamycin gold nanoparticles inhibit capillary endothelial cell cycle progression much more effectively than native Tunicamycin. It was also evaluated if Tunicamycin gold nanoparticles would also activate the pathway that induces the unfolded protein response. The results shown in FIG. 5 indicate that Tunicamycin gold nanoparticles affect both transcription and translation.

[3] = system: cyclin D1; test: Western blot of cyclin D1 expression in capillary endothelial cells; assay type: cell-based, bovine; conditions: 1 μg/ml, FIG. 2
Description: as §1, §2
(§4) To evaluate the biochemical pathway the Tunicamycin nanoparticles are likely to interfere, their effect on the cell cycle progression has been analyzed. The cell cycle antigens have been analyzed focusing primarily on the D-type cycline and their partners because Tunicamycin causes cell cycle arrest in G1. […] Expression of cyclin D1 and its catalytic partner, i.e., CDK4 was analyzed by western blotting. […] There was a little difference with the CDK4 expression. It was higher in cells treated with 20 nm gold particles […], but they both were much reduced compared to the untreated control or cells treated with native Tunicamycin as shown in FIG. 2. p53 is a gate keeper for the cell cycle. Upon phosphorylation p53 migrates to the nucleus and activates gene transcription.

[4] = system: IRE-1; test: Unfolded protein response, western blot of IRE-1; assay type: cell-based, bovine; conditions: FIG. 5
Description: as §1, §2, §3

[5] = system: GRP-78/Bip; conditions: shown earlier; cited from earlier work
[6] = system: p53p^ser392; test: Western blot of p53 phosphorylated in serine392; assay type: cell-based, bovine; conditions: FIG. 3
Description: as §1, §2, §4

[7] = system: phosphoPERK; test: Unfolded protein response, western blot of phosphoPERK; assay type: cell-based, bovine; conditions: FIG. 5
Description: as §1, §2, §3

[8] = system: CDK4; test: Western blot of CDK4 expression in capillary endothelial cells; assay type: cell-based, bovine; conditions: 1 μg/ml, FIG. 2, for the conjugates also compared to native Tunicamycin
Description: as §1, §2, §4

[9] = system: capillary endothelial cells; test: MTT assay, capillary endothelial cell viability; assay type: cell-based, bovine; conditions: 1 μg/ml, 3 h at 37° C., FIG. 1
Description: as §1
Synchronized capillary endothelial cells were incubated with Tunicamycin (1 μg/ml) alone or with 1 μg/ml of Tunicamycin nanoparticles for 3 h at 37° C. in a CO2 incubator (5% CO2 and 95% air) in 96-well microtiter plates. At the end the plates were processed for the MTT Assay. The results shown in FIG. 1 indicate that the cell viability was reduced to almost 50% (p<0.001) when treated with Tunicamycin conjugated to 20 nm or 50 nm gold particles.

[10] = system: breast tumor; conditions: athymic nude mice; cited from earlier work
[11] = system: angiogenesis; conditions: in vitro/in vivo; cited from earlier work

| Compound | formation of capillary tubes [1] | PERK activation [2] | expression of cyclin D1 compared to the untreated control [3] | IRE-1 (transcriptional attenuator) activation [4] | time of treatment at which ER stress is induced [5] [h] | expression of p53 phosphorylated in serine392 (p53p^ser392) [6] | phosphoPERK (translational attenuator) activation [7] | expression of CDK4 compared to the untreated control [8] | effect on capillary endothelial cell viability compared to the control [9] | breast tumor growth [10] | angiogenesis [11] |
| --- | --- | --- | --- | --- | --- | --- | --- | --- | --- | --- | --- |
| O[C@H]1[C@H]2[C@H](O)CCCN2C[C@H]1O [swainsonine] | did not inhibit tube formation | – | – | – | – | – | – | – | – | – | – |
| Tunicamycin | – | either had no effect or the effect is drastically reduced | enhanced | either had no effect or the effect is drastically reduced | 3 | no effect | either had no effect or the effect is drastically reduced | enhanced | does not show any effect | reduce the breast tumor growth | inhibit angiogenesis |
| OC[C@H]1NC[C@@H](O)[C@@H](O)[C@@H]1O [deoxymannojirimycin] | inhibited the formation of capillary tubes | – | – | – | – | – | – | – | – | – | – |

— US8524685B1, “Anti-angiogenic therapeutics efficacy enhanced by nanoformulation” (University of Puerto Rico, priority 2010, dated 2013)
